# Measurements as given in paper PMC6166228 (ACS Omega, 2018).
# How the values were obtained:
# human AT1 receptor = target: T1, human AT1 receptor (Homo sapiens, UniProt P30556); assay type: binding
# T1 sequence (P30556 1-359): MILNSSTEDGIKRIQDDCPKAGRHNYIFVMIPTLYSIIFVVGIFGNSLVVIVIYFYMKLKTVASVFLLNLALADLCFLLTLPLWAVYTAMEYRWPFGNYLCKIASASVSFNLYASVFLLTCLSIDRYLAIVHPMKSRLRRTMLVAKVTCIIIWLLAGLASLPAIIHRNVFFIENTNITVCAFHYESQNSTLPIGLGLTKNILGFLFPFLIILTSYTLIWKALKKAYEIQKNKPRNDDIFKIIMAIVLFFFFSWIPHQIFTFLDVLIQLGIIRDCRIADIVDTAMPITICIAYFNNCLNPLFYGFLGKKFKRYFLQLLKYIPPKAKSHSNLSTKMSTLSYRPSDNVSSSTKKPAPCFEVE
# [1] = no species and reference not given; cited from earlier work
Structure (SMILES),Ki (human AT1 receptor) [µM],average half-life [1]
"CC(C)[C@@H](C(=O)O)N(Cc1ccc(-c2ccccc2-c2nnn[nH]2)cc1)C(=O)CCCCF [FV45, (S)-2-(N-((2′-(1H-Tetrazol-5-yl)-[1,1′-biphenyl]-4-yl)methyl)-5-fluoropentanamido)-3-methylbutanoic Acid]",0.0146,–
CCCCC(=O)N(Cc1ccc(-c2ccccc2-c2nnn[nH]2)cc1)[C@H](C(=O)O)C(C)C [valsartan],–,around 6 h
